Test results published in patent US5656613A, “Treatment of hyperandrogenic conditions” (Merck & Co., Inc., priority 1995, dated 1997).
Like-named read-outs stand apart in the source and are kept apart here.

Columns and labels:
[1] = biological target: T1, human type 2 5α-reductase (Homo sapiens, UniProt P31213); experiment: Structural requirements / inhibition constants and IC50 on type 2 enzyme (Examples 9 and 11); format: biochemical
T1 construct: host or cells: native human prostate tissue or recombinant from a baculovirus expression system; considered interchangeable
T1 sequence (P31213 1-254): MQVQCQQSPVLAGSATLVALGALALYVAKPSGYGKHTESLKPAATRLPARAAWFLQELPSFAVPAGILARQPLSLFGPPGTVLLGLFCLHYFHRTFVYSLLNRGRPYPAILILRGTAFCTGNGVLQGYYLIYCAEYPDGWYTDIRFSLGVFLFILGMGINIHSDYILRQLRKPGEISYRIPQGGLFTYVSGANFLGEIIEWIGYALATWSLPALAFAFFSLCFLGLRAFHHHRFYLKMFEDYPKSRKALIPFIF
Protocol: (§1) The human isozymes were employed exclusively in this research. The native isozymes were from scalp (type 1 ) or prostate (type 2) tissues, and the recombinant forms were produced by a baculovirus expression system. Except where specified, all data refer to the prostate (type 2) isozyme, the primary target of finasteride. All of the experiments described in this application were also conducted with the recombinant type 1 isozyme, either in parallel or for confirmation.
Permutations of three structural changes to finasteride were tested for their ability to abolish time-dependent inhibition. All compounds were tested at their apparent IC50 values at pH 5.5 and 37° C.
(§2) Following the procedures of Example 9, the compounds below were each tested with both human type 1 and type 2 enzyme.

[2] = biological target: T2, human prostate (type 2) 5α-reductase (Homo sapiens, UniProt P31213); settings: read-out: Km for testosterone; native human prostate enzyme, neutral pH; Faller et al.; cited from earlier work
T2 sequence (P31213 1-254): T1 sequence (P31213 1-254)

[3] = biological target: T2, human prostate (type 2) 5α-reductase; experiment: Steady-state enzyme kinetics of substrates; format: biochemical; design: native prostate enzyme considered interchangeable; settings: pH 7.2, 37° C.
Excerpt: The model applies in many aspects to both slow-binding, reversible inhibitors and to mechanism-based, irreversible ones.
When tissue extracts were the source of enzyme, the quenched reactions were clarified by centrifugation at 10,000×g before analysis.

[4] = biological target: T3, human type 1 5α-reductase (Homo sapiens, UniProt P18405); experiment: Inhibition of human type 1 enzyme (Example 11); format: biochemical; settings: for IC50 / kon: Table 2, human type 1
T3 construct: made in house
T3 sequence (P18405 1-259): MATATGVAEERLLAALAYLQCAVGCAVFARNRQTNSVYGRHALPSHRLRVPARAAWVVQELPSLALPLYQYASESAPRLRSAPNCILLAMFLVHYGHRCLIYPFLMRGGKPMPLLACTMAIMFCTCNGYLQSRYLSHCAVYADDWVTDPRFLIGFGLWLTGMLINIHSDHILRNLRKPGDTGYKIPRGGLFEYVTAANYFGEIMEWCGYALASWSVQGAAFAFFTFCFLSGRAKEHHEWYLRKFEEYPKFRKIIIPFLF
Protocol: Permutations of three structural changes to finasteride were tested for their ability to abolish time-dependent inhibition. All compounds were tested at their apparent IC50 values at pH 5.5 and 37° C. Those displaying slow-binding inhibition are identified by kon values, which were determined as described for finasteride above. Those for which no time-dependent inhibition was found are identified by apparent Ki values.
as §2

[5] = biological target: T4, human 5α-reductase (prostate, type 2) (Homo sapiens, UniProt P31213); experiment: Inhibition of 5α-reductase by free NADP-dihydrofinasteride adduct; format: biochemical
T4 construct: host or cells: native human prostate tissue or recombinant from a baculovirus expression system; considered interchangeable
T4 sequence (P31213 1-254): T1 sequence (P31213 1-254)
Protocol: as §1

[6] = Nonenzymatic decomposition / stability of NADP-dihydrofinasteride adduct; format: physicochemical; settings: for degraded at 0.235 µM: 0.1m mops, pH 7.2, 235 nM, 0.1M MOPS; for ability to dissociate to [^14 C]-dihydrofinasteride after oxidation: phenazine methosulfate / pyrazine methosulfate
Protocol: The integrity of the NADP-[^14 C]dihydrofinasteride adduct, defined as its ability to form [^14 C]-dihydrofinasteride, was measured by high pressure liquid chromatography on a reverse phase column (VYDAC, 4.6×250 mm, 300 Å, 5 micron, flow rate=1 mL/min) in 60% aqueous methanol. The retention time was about 14 minutes, and was consistently 1.4 min longer than that for [^3 H]finasteride, as determined by co-injection. […] The halflife for decomposition was ~1 min in 0.1M ammonium formate buffer at pH 4.00 and 100° C., and these conditions gave 88% conversion to [^14 C]-dihydrofinasteride at infinite time.
All lines of evidence point to the covalent adduct of inhibitor and cofactor. (1) The absorbance and fluorescence spectra resemble those of NAD(P)H, the NAD-pyruvate complex and analogs and the NAD-cyanide addition complex described by Kaplan, et al. (2) On heating, the compound decomposes to (^14 C)dihydrofinasteride with a rate constant of ~6×10^-4 s^-1 and halflife of 20 min in water at neutral pH and 100° C., explaining the recovery of dihydrofinasteride in the heat-denaturation experiments above. […] (4) Securing the identification, the most prominent parent ion peak in its mass spectrum had the correct charge/mass ratio of 1116 Da.
The rate constant for nonenzymatic breakdown of the covalent intermediate to NADP^+ and dihydrofinasteride was determined under the same conditions used for the enzyme kinetic constants. See Example 5. A constant kx =7.21+0.27×10^-7 s^-1 and a halflife of 11.1±0.4 days at pH 7.2 and 37° C. was calculated. The formation of [^14 C]dihydrofinasteride went to 75% completion at infinite lime, presumably due to competing side reactions like oxidation of the dihydropyridine ring.
The decay of the isolated complex to NADP+ and [^14 C]dihydrofinasteride was measured as a function of time to determine the rate constant for nonenzymatic decomposition of NADP-dihydrofinasteride. The complex (235 nM) was incubated in 0.1M MOPS, 0.1% BSA, and 1 mM EDTA at pH 7.2 and 37° C., and fractions were taken each day and stored at -75° C. These were later analyzed by reverse phase chromatography as described for the assay using a neutral isocratic system of 60% methanol, where [^14 C]dihydrofinasteride has a retention time of 14 min. The y-axis is expressed relative to the total ^14 C-label in each sample injected (2,410 dpm). The reaction went to 0.753 completion at infinite time, as determined by heating at 100° C. The results, as determined by nonlinear regression are consistent with first-order decay with a rate constant kx =7.21+0.27×10^-7 s^-1 and 0.754±0.015 conversion at infinite time as determined by nonlinear regression.

[7] = Partition of released polar component into chloroform; format: physicochemical; settings: released by denaturation in guanidine hydrochloride
Excerpt: Eventually, it became evident that dihydrofinasteride is not the immediate product released upon denaturation of the enzyme-inhibitor complex. Several lines of evidence pointed to release of a much more polar [^3 H]-labeled component. Among these, it was disconcerting that recoveries of [^3 H]dihydrofinasteride on the reverse phase column were often only 35-45% of the radioactivity released from heat-denatured enzyme-inhibitor complex, the remainder never eluting (under acidic conditions). […] It is now clear that this polar intermediate accounts for most, or all, of the radioactivity released by any denaturation method, chromatographs anomalously, and is inadvertently converted to [^3 H]dihydrofinasteride during heat-denaturation.

[8] = comparison with NADP-dihydrofinasteride adduct; cited from earlier work
[9] = Table 1, pH 5.5, 37° C., no time-dependent inhibition, read-out: Ki (apparent)
[10] = Table 3, human type 2, read-out: kon

## CN1C(=O)CC[C@]2(C)[C@H]3CC[C@]4(C)[C@@H](C(=O)NC5C6CC7CC(C6)CC5C7)CC[C@H]4[C@@H]3CC[C@@H]12 (some centres unmarked) [Compound 10]
[1]; [9]
  Ki: 0.5 nM

## CC(C)(C)NC(=O)[C@H]1CC[C@H]2[C@@H]3CC[C@H]4NC(=O)CC[C@]4(C)[C@H]3CC[C@]12C [Compound 2]
[1]; [9]
  Ki: 8 nM

## C[C@]12CC[C@H]3[C@@H](CCC4=CC(=O)CC[C@@]43C)[C@@H]1CC[C@@H]2O [testosterone]
[2]
  Km: 0.02 ± 0.003 µM
[3]
  kcat/Km: 2.99±0.32×10^6 M^-1 s^-1
[3]; by titration with finasteride
  turnover number kcat: 0.075 ± 0.006 s⁻¹

## COC(C)C1CC[C@H]2[C@@H]3CC[C@H]4NC(=O)C=C[C@]4(C)[C@H]3CC[C@]12C (some centres unmarked) [Compound 14]
[1]; Table 3, human type 2
  IC50: 5400 nM
[1]; [10]
  kon: 130 M⁻¹ s⁻¹
[4]
  selectivity for human 5α-reductase type 1: 1,600
  IC50: 1.8 nM
  kon: 200000 M⁻¹ s⁻¹

## CN1C(=O)CC[C@]2(C)[C@H]3CC[C@]4(C)[C@@H](C(=O)C5CCCCC5)CC[C@H]4[C@@H]3CC[C@@H]12 [Compound 8]
[1]; [9]
  Ki: 0.2 nM

## COC(=O)[C@H]1CC[C@H]2[C@@H]3CC[C@H]4N(C)C(=O)C=C[C@]4(C)[C@H]3CC[C@]12C [Compound 4]
[1]
  Ki: 960 nM

## C[C@]12C=CC(=O)N[C@@H]1CC[C@@H]1[C@@H]2CC[C@]2(C)C(CCC(=O)Nc3ccncc3)CC[C@@H]12 (some centres unmarked) [Compound 12]
[1]; Table 3, human type 2
  IC50: 3500 nM
[1]; [10]
  kon: 140 M⁻¹ s⁻¹
[4]
  selectivity for human 5α-reductase type 1: 1,200
  IC50: 2.8 nM
  kon: 170000 M⁻¹ s⁻¹

## C[C@]12C=CC(=O)N[C@@H]1CC[C@@H]1[C@@H]2CC[C@]2(C)[C@@H](C(=O)C3CCCCC3)CC[C@@H]12 [Compound 5]
[1]; Table 1, pH 5.5, 37° C.
  kon: 28.00 10^5 × M^-1 s^-1

## C[C@]12C=CC(=O)N[C@@H]1CC[C@@H]1[C@@H]2CC[C@]2(C)C(CC#N)CC[C@@H]12 (some centres unmarked) [Compound 13]
[1]; Table 3, human type 2
  IC50: 8400 nM
[1]; [10]
  kon: 140 M⁻¹ s⁻¹
[4]
  selectivity for human 5α-reductase type 1: 1,200
  IC50: 3 nM
  kon: 180000 M⁻¹ s⁻¹

## CC(C)(C)NC(=O)[C@H]1CC[C@H]2[C@@H]3CC[C@H]4NC(=O)C(C5C=CN([C@@H]6O[C@H](COP(=O)(O)OP(=O)(O)OC[C@H]7O[C@@H](n8cnc9c(N)ncnc98)[C@H](OP(=O)(O)O)[C@@H]7O)[C@@H](O)[C@H]6O)C=C5C(N)=O)C[C@]4(C)[C@H]3CC[C@]12C (some centres unmarked) [NADP-dihydrofinasteride adduct]
[5]; bounded by observed decay of enzyme-[^3 H]finasteride complex
  rate constant for release of adduct from competent enzyme: ≤ 3e-07 s⁻¹
[5]; extrapolated to zero pyridine-nucleotide cofactor
  rate constant for binding of adduct to free enzyme, k-3: ~ 1×10^6 M^-1 s^-1
[5]; versus NADPH and testosterone
  mode of inhibition: competitive with the first substrate (NADPH) and independent of saturating concentrations of the second (testosterone)
[6]; 0.1M ammonium formate, pH 4.00, 100° C., read-out: halflife for decomposition
  half-life: ~1 min
[6]; 0.1m ammonium formate, pH 4, 0.1M ammonium formate, pH 4.00, 100° C., read-out: conversion to [^14 C]-dihydrofinasteride at infinite time
  degraded: 88%
[6]; pH 7.2, 37° C., read-out: conversion at infinite time, by nonlinear regression
  degraded at 0.235 µM: 75.4 ± 1.5%
[6]; pH 7.2, read-out: completion at infinite time, by heating at 100° C.
  degraded at 0.235 µM: 75.3%
[6]; ammonium bicarbonate buffer, pH 9, -75° C.
  storage stability: stable for months
[6]; oxidation and dissociation
  stability relative to NAD-pyruvate counterpart: more stable to oxidation, and certainly to dissociation,than its NAD-pyruvate counterpart
[6]; pH 7.2, 37° C.
  rate constant kx for nonenzymatic breakdown to NADP^+ and dihydrofinasteride: 7.21+0.27×10^-7 s^-1
[6]; pH 7.2, 37° C., read-out: halflife of nonenzymatic breakdown (converted)
  half-life: 16000 min
[6]; pH 7.2, pH 7.2, 37° C., read-out: completion of formation of [^14 C]dihydrofinasteride at infinite time
  degraded: 75%
[6]; listed as NADP-[^14 C]dihydrofinasteride adduct
  ability to dissociate to [^14 C]-dihydrofinasteride after oxidation: completely abolished the ability to dissociate to [^14 C]-dihydrofinasteride
[6]; listed as covalent adduct of inhibitor and cofactor
  ability to dissociate to [^14 C]-dihydrofinasteride after oxidation: abolished by treatment with pyrazine methosulfate
[6]; water, neutral pH, 100° C.
  rate constant of decomposition: ~ 6×10^-4 s^-1
[6]; water, neutral pH, 100° C., read-out: halflife of decomposition
  half-life: 20 min
[7]
  radioactivity partitioning into chloroform: < 5%

## COC(=O)[C@H]1CC[C@H]2[C@@H]3CC[C@H]4NC(=O)C=C[C@]4(C)[C@H]3CC[C@]12C [Compound 3]
[1]; Table 1, pH 5.5, 37° C.
  kon: 0.85 10^5 × M^-1 s^-1

## C[C@]12C=CC(=O)N[C@@H]1CC[C@@H]1[C@@H]2CC[C@]2(C)[C@@H](C(=O)NC3C4CC5CC(C4)CC3C5)CC[C@@H]12 (some centres unmarked) [Compound 9]
[1]; Table 1, pH 5.5, 37° C.
  kon: 47.00 10^5 × M^-1 s^-1

## CC1C[C@H]2NC(=O)C=C[C@]2(C)[C@H]2CC[C@]3(C)CC(Oc4ccc(Cl)cc4)C[C@H]3[C@H]12 (some centres unmarked) [Compound 11]
[1]; Table 3, human type 2
  IC50: > 10000 nM
[1]; [10]
  kon: 50 M⁻¹ s⁻¹
[4]
  selectivity for human 5α-reductase type 1: 3,300
  IC50: 8 nM
  kon: 170000 M⁻¹ s⁻¹

## CN1C(=O)C=C[C@]2(C)[C@H]3CC[C@]4(C)[C@@H](C(=O)C5CCCCC5)CC[C@H]4[C@@H]3CC[C@@H]12 [Compound 7]
[1]; [9]
  Ki: 13 nM

## C[C@]12CCC(=O)N[C@@H]1CC[C@@H]1[C@@H]2CC[C@]2(C)[C@@H](C(=O)C3CCCCC3)CC[C@@H]12 [Compound 6]
[1]; [9]
  Ki: 0.3 nM

## NC(=O)C1=CN([C@@H]2O[C@H](COP(=O)(O)OP(=O)(O)OC[C@H]3O[C@@H](n4cnc5c(N)ncnc54)[C@H](O)[C@@H]3O)[C@@H](O)[C@H]2O)C=CC1CC(=O)C(=O)O (some centres unmarked) [NAD-pyruvate adduct]
[8]
  stability: so unstable as to preclude normal kinetic measurements
